Test results from US7001897B2, “1-methylcarbapenem derivatives” (Sankyo Company, Limited, priority 2000, dated 2006).
Converted amounts (≈) assume the structure as drawn.

Columns and labels:
[1] = system: Haemophilis influenzae strain 9787 (a strain producing β-lactamase); assay: In vitro antibacterial activity, agar plate dilution method; assay type: cell-based; settings: C: Haemophilis influenzae strain 9787 (β-lactamase producing); agar plate dilution; read-out: Minimum Concentration to Inhibit Growth of the Employed Bacteria C
Description: (§1) To assess the antibacterial activities of the compounds, the minimum concentrations (μg/ml) of the compounds to inhibit growth of various pathogenic bacteria were determined by agar plate dilution method. In this Table, the employed bacteria A, B, and C were as follow: • A: Staphylococcus aureus • B: Streptococcus pneumoniae • C: Haemophilis influenzae strain 9787 (a strain producing β-lactamase)

[2] = system: Staphylococcus aureus; assay: as above; assay type: cell-based; settings: A: Staphylococcus aureus; agar plate dilution; read-out: Minimum Concentration to Inhibit Growth of the Employed Bacteria A
Description: as §1

[3] = system: Streptococcus pneumoniae; assay: as above; assay type: cell-based; settings: B: Streptococcus pneumoniae; agar plate dilution; read-out: Minimum Concentration to Inhibit Growth of the Employed Bacteria B
Description: as §1

[4] = Pharmacokinetics, plasma concentration by bioassay after subcutaneous injection; assay type: in vivo; settings: mouse, sc, mice (ddY, male), 20 mg/kg subcutaneous; for AUC: read-out: AUCall (area under the concentration-time curve in plasma); for Cmax: read-out: Cmax (maximal plasma concentration); for half-life: read-out: T1/2 (half-life in plasma concentration) (converted)
Description: The compounds of the present invention compound (20 mg/kg) was subcutaneously injected to mice (n=3, ddY, male, purchased from SLC Japan). The plasma concentration of the compound was determined by a bioassay method at 5, 15, and 30 min, and 1, 1.5, and 2 hr after administration. In the Table, Cmax, T1/2, and AUCall indicate the maximal plasma concentration, half-life in plasma concentration, and area under the concentration-time curve in plasma of the compound, respectively.

[5] = system: S. pneumoniae 9605 (PRSP); assay: In vivo antibacterial activity, intraperitoneal infection of mice; settings: Streptococcus pneumoniae, 168 h; male ddY mice, i.p. S. pneumoniae 9605 (PRSP), single subcutaneous treatment, Probit method from survival rates 7 days after infection
Description: Male ddY mice of 4 weeks old (purchased from SLC Japan) were intraperitoneally inoculated with S. pneumoniae 9605 (PRSP) at a volume of 0.2 ml (containing 5% mucin, 1-5×10^3 colony forming unit (cfu)/mouse). Immediately after the mice were infected, they were subcutaneously treated with the test compound singly at a volume of 0.1 ml. Seven mice were used per group. A solution of the test compound prepared by 2-step dilution was used for the experiment. ED50 values of the compounds were calculated by the Probit method from survival rates 7 days after infection.

MIC [1] [µg/mL]	MIC [2] [µg/mL]	MIC [3] [µg/mL]	AUC [4] [ng·h/mL]	Cmax [4] [ng/mL]	half-life [4] [min]	Compound	ED50 [5] [mg/kg]
0.2 (≈ 0.405 µM)	≤ 0.012	0.2 (≈ 0.405 µM)	47400	63900	24.6	C[C@@H](O)[C@H]1C(=O)N2C(C(=O)O)=C(SC3CN(c4nc(C(=O)N[C@@H]5CCNC5)cs4)C3)[C@H](C)[C@H]12 [Example 58, (1R,5S,6S)-2-{1-[4-((3R)-pyrrolidin-3-ylcarbamoyl)-1,3-thiazol-2-yl]azetidin-3-yl}thio-6-[(R)-1-hydroxyethyl]-1-methylcarbapen-2-em-3-carboxylic acid]	0.899
0.2 (≈ 0.405 µM)	0.025 (≈ 0.0506 µM)	0.2 (≈ 0.405 µM)	45300	48200	22.8	C[C@@H](O)[C@H]1C(=O)N2C(C(=O)O)=C(SC3CN(c4nc(C(=O)N[C@H]5CCNC5)cs4)C3)[C@H](C)[C@H]12 [Example 57, (1R,5S,6S)-2-{1-[4-((3S)-pyrrolidin-3-ylcarbamoyl)-1,3-thiazol-2-yl]azetidin-3-yl}thio-6-[(R)-1-hydroxyethyl]-1-methylcarbapen-2-em-3-carboxylic acid]	0.855
0.2 (≈ 0.487 µM)	≤ 0.012	0.39 (≈ 0.95 µM)	34100	40200	27	C[C@@H](O)[C@H]1C(=O)N2C(C(=O)O)=C(SC3CN(c4nc(CN)cs4)C3)[C@H](C)[C@H]12 [Example 67, (1R,5S,6S)-2-[1-(4-aminomethyl-1,3-thiazol-2-yl)azetidin-3-yl]thio-6-[(R)-1-hydroxyethyl]-1-methylcarbapen-2-em-3-carboxylic acid]	1.6
0.39	0.05	0.2	27900	52800	11.4	C[C@@H](O)[C@H]1C(=O)N2C(C(=O)[O-])=C(SC3CN(c4nc(C(=O)N5CCOCC5)co4)C3)[C@H](C)[C@H]12.[Na+] [Example 76, (1R,5S,6S)-2-[1-(4-morpholinocarbonyl-1,3-oxazol-2-yl)azetidin-3-yl]thio-6-[(R)-1-hydroxyethyl]-1-methylcarbapen-2-em-3-carboxylic acid sodium salt]	0.534
0.39 (≈ 0.79 µM)	0.025 (≈ 0.0506 µM)	0.39 (≈ 0.79 µM)	27900	46100	18	C[C@@H](O)[C@H]1C(=O)N2C(C(=O)O)=C(SC3CN(c4nc(C(=O)N5CCNCC5)cs4)C3)[C@H](C)[C@H]12 [Example 60, (1R,5S,6S)-2-{1-[4-(piperazine-1-carbonyl)-1,3-thiazol-2-yl]azetidin-3-yl}thio-6-[(R)-1-hydroxyethyl]-1-methylcarbapen-2-em-3-carboxylic acid]	1.41
